From patent US12178791B2, “Haloallylamine sulfone derivative inhibitors of lysyl oxidases and uses thereof” (Syntara Limited, priority 2018, dated 2024) come the findings set out here.

Type in all cases: biochemical
One experiment deals with LOXL1 (Homo sapiens (Human), UniProt Q08397). Nature of the experiment: Jump dilution experiment, sustained inhibition of LOXL1.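 Further: 30× IC50 used only where needed so inhibitor exceeds enzyme concentration.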 Conditions: jump dilution after 40 min at 37 °C with 10× or 30× IC50; vs non-inhibited controls. How it is done: (§1) Jump Dilution experiment: The assay was developed using a 96 well format and the starting enzyme concentration was set 100 times higher than for the inhibition studies. […] After the incubation, the mixture was diluted 50× in assay buffer, followed by a further 2× dilution in Amplex Red-horseradish peroxidase-putrescine reaction mix (same as per the inhibition studies) prior to the fluorescent measurement. Results were expressed in % recovery of the signal after a specified time by comparison with non-inhibited controls.

A further experiment addresses Bovine LOX (Bos taurus (Bovine), UniProt P33072). Nature of the experiment: LOX inhibition, Amplex Red oxidation assay. Particulars: 30 min preincubation at 37 °C, putrescine substrate. The text has this: Lysyl oxidase (LOX) is an extracellular copper dependent enzyme which oxidizes peptidyl lysine and hydroxylysine residues in collagen and lysine residues in elastin to produce peptidyl alpha-aminoadipic-delta-semialdehydes. […] There are five LOX family members; these are LOX, LOXL1, LOXL2, LOXL3 and LOXL4. LOX and LOXL family members can be acquired as recombinant active proteins from commercial sources, or extracted from animal tissues like bovine aorta, tendons, pig skin; or prepared from cell cultures. The inhibitory effects of the compounds of the present invention were tested against the given LOX-LOXL preparation using a method based on the detection of hydrogen peroxide with an Amplex Red oxidation assay (Zhou et al. A stable nonfluorescent derivative of resorufin for the fluorometric determination of trace hydrogen peroxide: applications in detecting the activity of phagocyte NADPH oxidase and other oxidases. Anal. Biochem. 1997; 253, 162-168). The assay was developed using either 384 or 96 well format. Briefly, in a standard black, clear bottom 384 well plate assay 25 μL of a dilution of any of the isoenzymes and orthologues in 1.2 M urea, 50 mM sodium borate buffer (pH 8.2) were added into each well in the presence of 1 μM mofegiline and 0.5 mM pargyline (to inhibit SSAO and MAO-B and MAO-A, respectively; not necessary if the enzyme is from a recombinant or purified form). […] Twenty five μL of a reaction mixture containing twice the KM concentration of putrescine (Sigma Aldrich, e.g. 20 mM for LOX, or 10 mM for LOXL2 and LOXL3), 120 μM Amplex Red (Sigma Aldrich) and 1.5 U/mL horseradish peroxidase (Sigma Aldrich) prepared in 1.2 M urea, 50 mM sodium borate buffer (pH 8.2) were then added to the corresponding wells. The above volumes were doubled in the case of 96 wells plate. The fluorescence (RFU) was read every 2.5 min for 30 min at […] 37° C., excitation 565 nm and emission 590 (Optima; BMG labtech). The slope of the kinetics for each well was calculated using MARS data analysis software (BMG labtech) and this value was used to deduce the IC50 value (Dotmatics).

The target of another experiment is Recombinant human MAO-B (Homo sapiens (Human), UniProt P27338). Nature of the experiment: Inhibition of human recombinant MAO-B. Conditions: benzylamine 100 μM. How it is done:
The specificity of the compounds of this invention was tested by determining their ability to inhibit MAO-B activities in vitro. Recombinant human MAO-B (0.06 mg/mL; Sigma Aldrich) was used as source of MAO-B enzyme activities. The assay was performed in a similar way as for human SSAO/VAP-1 (Example 28) except, the substrate benzylamine was used at 100 μM.

For experiment [1], the target named is T1, LOXL2 (Homo sapiens (Human), UniProt Q9Y4K0). Nature of the experiment: LOXL2 inhibition, Amplex Red oxidation assay. Conditions: 30 min preincubation at 37 °C, putrescine substrate. The text has this:
Lysyl oxidase (LOX) is an extracellular copper dependent enzyme which oxidizes peptidyl lysine and hydroxylysine residues in collagen and lysine residues in elastin to produce peptidyl alpha-aminoadipic-delta-semialdehydes. […] There are five LOX family members; these are LOX, LOXL1, LOXL2, LOXL3 and LOXL4. LOX and LOXL family members can be acquired as recombinant active proteins from commercial sources, or extracted from animal tissues like bovine aorta, tendons, pig skin; or prepared from cell cultures. The inhibitory effects of the compounds of the present invention were tested against the given LOX-LOXL preparation using a method based on the detection of hydrogen peroxide with an Amplex Red oxidation assay (Zhou et al. A stable nonfluorescent derivative of resorufin for the fluorometric determination of trace hydrogen peroxide: applications in detecting the activity of phagocyte NADPH oxidase and other oxidases. Anal. Biochem. 1997; 253, 162-168). The assay was developed using either 384 or 96 well format. Briefly, in a standard black, clear bottom 384 well plate assay 25 μL of a dilution of any of the isoenzymes and orthologues in 1.2 M urea, 50 mM sodium borate buffer (pH 8.2) were added into each well in the presence of 1 μM mofegiline and 0.5 mM pargyline (to inhibit SSAO and MAO-B and MAO-A, respectively; not necessary if the enzyme is from a recombinant or purified form). Test compounds were dissolved in DMSO and tested in a Concentration Response Curve (CRC) with 11 data points, typically in the micromolar or nanomolar range after incubation with the enzyme for 30 min at 37° C. Twenty five μL of a reaction mixture containing twice the KM concentration of putrescine (Sigma Aldrich, e.g. 20 mM for LOX, or 10 mM for LOXL2 and LOXL3), 120 μM Amplex Red (Sigma Aldrich) and 1.5 U/mL horseradish peroxidase (Sigma Aldrich) prepared in 1.2 M urea, 50 mM sodium borate buffer (pH 8.2) were then added to the corresponding wells. The above volumes were doubled in the case of 96 wells plate. The fluorescence (RFU) was read every 2.5 min for 30 min at […] 37° C., excitation 565 nm and emission 590 (Optima; BMG labtech). The slope of the kinetics for each well was calculated using MARS data analysis software (BMG labtech) and this value was used to deduce the IC50 value (Dotmatics).

Experiment [2] deals with Human recombinant SSAO/VAP-1 (Homo sapiens (Human), UniProt Q16853). Nature of the experiment: Inhibition of human recombinant SSAO/VAP-1. Particulars: 30 min preincubation at 37 °C, benzylamine 600 μM; read-out: SSAO/VAP-1 Activity IC50. How it is done: Human recombinant SSAO/VAP-1 amine oxidase activity was determined using the coupled colorimetric method as described for monoamine oxidase, copper-containing amine oxidases and related enzymes (Holt A. and Palcic M., A peroxidase-coupled continuous absorbance plate-reader assay for flavin monoamine oxidases, copper-containing amine oxidases and related enzymes. Nat Protoc 2006; 1: 2498-2505). Briefly, a cloned cDNA template corresponding to residues 34-763 of human SSAO/VAP-1, and incorporating a mouse Ig kappa (κ) signal sequence, N-terminal flag epitope tag and tobacco etch virus (TEV) cleavage site, was assembled in a mammalian expression vector (pLO-CMV) by Geneart AG. This vector containing human SSAO/VAP-1 residues was transfected into CHO-Kl glycosylation mutant cell line, Lec 8. A clone stably expressing human SSAO/VAP-1 was isolated and cultured in large scale. Active human SSAO/VAP-1 was purified and recovered using immunoaffinity chromatography. This was used as the source for SSAO/VAP-1 activity. A high-throughput colorimetric assay was developed using either 96 or 384 well format. Briefly, in a standard 96 well plate assay 50 μL of purified human SSAO/VAP-1 (0.25 μg/mL) in 0.1 M sodium phosphate buffer (pH 7.4) was added into each well. Test compounds were dissolved in DMSO and tested in a Concentration Response Curve (CRC) with 4-11 data points, typically in the micromolar or nanomolar range after incubation with human SSAO/VAP-1 for 30 min at 37° C. After 30 min incubation, 50 μL of the reaction mixture containing 600 μM benzylamine (Sigma Aldrich), 120 μM Amplex Red (Sigma Aldrich) and 1.5 U/mL horseradish peroxidase (Sigma Aldrich) prepared in 0.1 M sodium phosphate buffer (pH 7.4) were added to the corresponding well. The fluorescence unit (RFU) was read every 2.5 min for 30 min at 37° C. excitation 565 nm and emission 590 (Optima; BMG labtech). The slope of the kinetics for each well was calculated using MARS data analysis software (BMG labtech) and this value was used to deduce the IC50 value (Dotmatics).

In experiment [3] the target is T1, LOXL2. Nature of the experiment: Jump dilution experiment, sustained inhibition of LOXL2.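 Further: 30× IC50 used only where needed so inhibitor exceeds enzyme concentration.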 Particulars: jump dilution after 40 min at 37 °C with 10× or 30× IC50; vs non-inhibited controls. How it is done:
as §1

Structures can show the parent of a compound that is named as a salt.

Chain of LOXL1 (Q08397 96-574, species assumed): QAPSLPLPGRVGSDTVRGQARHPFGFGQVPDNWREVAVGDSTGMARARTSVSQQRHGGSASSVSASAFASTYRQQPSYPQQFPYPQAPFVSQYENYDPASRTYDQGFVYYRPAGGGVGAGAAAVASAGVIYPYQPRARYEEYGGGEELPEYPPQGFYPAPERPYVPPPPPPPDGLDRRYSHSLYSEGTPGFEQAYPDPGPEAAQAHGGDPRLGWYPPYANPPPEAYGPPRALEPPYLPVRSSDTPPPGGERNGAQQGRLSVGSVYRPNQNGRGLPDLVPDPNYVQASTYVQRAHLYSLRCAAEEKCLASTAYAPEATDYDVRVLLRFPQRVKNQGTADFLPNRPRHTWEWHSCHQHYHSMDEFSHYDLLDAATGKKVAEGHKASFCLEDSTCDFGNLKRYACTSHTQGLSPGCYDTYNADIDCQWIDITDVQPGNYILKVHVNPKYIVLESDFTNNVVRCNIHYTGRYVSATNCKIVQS
Chain of Human recombinant SSAO/VAP-1 (Q16853 34-763): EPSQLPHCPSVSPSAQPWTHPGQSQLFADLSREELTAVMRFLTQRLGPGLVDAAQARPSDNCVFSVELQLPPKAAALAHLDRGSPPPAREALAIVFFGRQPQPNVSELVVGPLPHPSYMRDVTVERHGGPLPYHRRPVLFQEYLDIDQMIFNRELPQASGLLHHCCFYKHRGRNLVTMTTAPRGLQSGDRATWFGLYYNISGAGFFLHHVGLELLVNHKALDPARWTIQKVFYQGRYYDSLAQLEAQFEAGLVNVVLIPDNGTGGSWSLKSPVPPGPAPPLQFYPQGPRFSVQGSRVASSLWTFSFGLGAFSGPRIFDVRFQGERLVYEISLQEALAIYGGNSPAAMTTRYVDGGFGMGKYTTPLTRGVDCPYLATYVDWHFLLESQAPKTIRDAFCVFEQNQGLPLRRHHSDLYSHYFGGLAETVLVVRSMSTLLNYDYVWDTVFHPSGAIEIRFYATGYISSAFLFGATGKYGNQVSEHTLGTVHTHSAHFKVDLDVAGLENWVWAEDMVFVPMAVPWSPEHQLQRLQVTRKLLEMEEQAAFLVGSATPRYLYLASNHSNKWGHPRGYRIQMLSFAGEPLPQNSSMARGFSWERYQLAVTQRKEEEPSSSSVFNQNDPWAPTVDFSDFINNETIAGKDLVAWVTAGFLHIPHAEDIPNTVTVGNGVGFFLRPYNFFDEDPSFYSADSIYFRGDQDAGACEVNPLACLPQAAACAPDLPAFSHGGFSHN
T1 sequence (Q9Y4K0 26-774): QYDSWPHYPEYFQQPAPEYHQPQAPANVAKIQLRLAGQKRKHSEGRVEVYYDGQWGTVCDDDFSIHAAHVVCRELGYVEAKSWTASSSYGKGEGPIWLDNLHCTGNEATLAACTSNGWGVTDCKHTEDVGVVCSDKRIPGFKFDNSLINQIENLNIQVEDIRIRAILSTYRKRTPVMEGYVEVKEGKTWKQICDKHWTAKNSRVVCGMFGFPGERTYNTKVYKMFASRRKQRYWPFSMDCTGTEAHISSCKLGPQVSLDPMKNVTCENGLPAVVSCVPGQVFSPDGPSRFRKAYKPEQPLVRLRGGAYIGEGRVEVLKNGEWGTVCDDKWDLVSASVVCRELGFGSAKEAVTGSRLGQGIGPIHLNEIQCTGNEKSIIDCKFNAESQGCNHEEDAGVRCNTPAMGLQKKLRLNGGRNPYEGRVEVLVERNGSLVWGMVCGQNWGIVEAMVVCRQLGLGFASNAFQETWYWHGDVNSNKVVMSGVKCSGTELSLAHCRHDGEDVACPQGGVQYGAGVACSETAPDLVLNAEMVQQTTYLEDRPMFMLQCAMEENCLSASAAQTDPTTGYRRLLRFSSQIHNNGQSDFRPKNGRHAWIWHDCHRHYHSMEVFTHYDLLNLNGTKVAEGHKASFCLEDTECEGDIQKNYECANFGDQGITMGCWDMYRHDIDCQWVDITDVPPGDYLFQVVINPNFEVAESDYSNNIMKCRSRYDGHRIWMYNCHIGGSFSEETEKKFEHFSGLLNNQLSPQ
Chain of Recombinant human MAO-B (P27338 whole entry): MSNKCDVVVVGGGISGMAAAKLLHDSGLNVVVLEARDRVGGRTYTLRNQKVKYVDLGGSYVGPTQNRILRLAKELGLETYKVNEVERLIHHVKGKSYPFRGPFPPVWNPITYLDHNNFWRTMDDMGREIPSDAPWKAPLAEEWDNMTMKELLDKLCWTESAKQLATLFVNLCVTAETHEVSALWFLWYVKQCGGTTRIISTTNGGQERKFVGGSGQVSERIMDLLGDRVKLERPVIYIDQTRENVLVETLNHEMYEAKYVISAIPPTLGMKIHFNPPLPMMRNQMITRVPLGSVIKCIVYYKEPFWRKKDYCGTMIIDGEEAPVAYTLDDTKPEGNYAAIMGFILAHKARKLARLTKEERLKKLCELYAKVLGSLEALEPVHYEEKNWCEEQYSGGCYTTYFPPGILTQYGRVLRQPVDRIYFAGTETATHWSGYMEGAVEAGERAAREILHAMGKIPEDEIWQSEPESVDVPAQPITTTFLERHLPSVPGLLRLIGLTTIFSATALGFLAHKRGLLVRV
Chain of Bovine LOX (P33072 170-418): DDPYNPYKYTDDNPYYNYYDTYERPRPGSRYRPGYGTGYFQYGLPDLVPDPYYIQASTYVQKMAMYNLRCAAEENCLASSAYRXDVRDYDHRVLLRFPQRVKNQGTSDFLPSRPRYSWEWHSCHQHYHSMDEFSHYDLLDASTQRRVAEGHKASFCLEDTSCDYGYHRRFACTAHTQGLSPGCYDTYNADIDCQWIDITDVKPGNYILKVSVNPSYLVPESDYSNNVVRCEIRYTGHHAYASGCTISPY

Take `NC/C=C(\F)CS(=O)(=O)c1ccc(C(=O)NC23CC4CC(CC(C4)C2)C3)cc1` [Compound 4, N-(adamantan-1-yl)-4-(((Z)-4-amino-2-fluorobut-2-en-1-yl)sulfonyl)benzamide hydrochloride]: the “LOXL1 - Recovery of activity. (%)” value on LOXL1 is reported as 16.7%. The IC50 against Bovine LOX is less than 10 µM; on Recombinant human MAO-B, less than 10 µM; against LOXL2 [1], less than 10 µM; in experiment [2], more than 30 µM. Further, the “LOXL2 - Recovery of activity. (%)” value on LOXL2 [3] is 21.2%.

On to `CN(C)S(=O)(=O)c1ccc(COc2ccccc2S(=O)(=O)C/C(F)=C/CN)cc1` [Compound 5, (Z)-4-((2-((4-amino-2-fluorobut-2-en-1-yl)sulfonyl)phenoxy)methyl)-N,N-dimethylbenzenesulfonamide hydrochloride], for which, on LOXL1, the “LOXL1 - Recovery of activity. (%)” value came out at 3.6%. Also, the IC50 against Bovine LOX is less than 1 µM; at Recombinant human MAO-B, more than 30 µM; against LOXL2 [1], less than 1 µM; in experiment [2], more than 30 µM. The “LOXL2 - Recovery of activity. (%)” value at LOXL2 [3] is 10.0%.

Consider `CN(C)S(=O)(=O)c1ccc(Oc2ccccc2S(=O)(=O)C/C(F)=C/CN)cc1` [Compound 6, (Z)-4-(2-((4-amino-2-fluorobut-2-en-1-yl)sulfonyl)phenoxy)-N,N-dimethylbenzenesulfonamide hydrochloride], for which the “LOXL1 - Recovery of activity. (%)” value on LOXL1 is on record as 2.5%. The IC50 at Bovine LOX was less than 10 µM; at Recombinant human MAO-B, more than 30 µM; against LOXL2 [1], less than 1 µM; in experiment [2] it was more than 30 µM. Besides, the “LOXL2 - Recovery of activity. (%)” value at LOXL2 [3] came out at 10.4%.

Turning to `CN(C)S(=O)(=O)c1ccc(COc2ccc(S(=O)(=O)C/C(F)=C/CN)cc2)cc1` [Compound 10, (Z)-4-((4-((4-amino-2-fluorobut-2-en-1-yl)sulfonyl)phenoxy)methyl)-N,N-dimethylbenzenesulfonamide hydrochloride], the IC50 is less than 10 µM against Bovine LOX, more than 30 µM at Recombinant human MAO-B, less than 10 µM against LOXL2 [1] and more than 30 µM in experiment [2]. Moreover, on LOXL2 [3], the “LOXL2 - Recovery of activity. (%)” value is 15.2%.

On to `CC(C)N(C(C)C)S(=O)(=O)c1ccc(COc2ccccc2S(=O)(=O)C/C(F)=C/CN)cc1` [Compound 11, (Z)-4-((2-((4-amino-2-fluorobut-2-en-1-yl)sulfonyl)phenoxy)methyl)-N,N-diisopropylbenzenesulfonamide hydrochloride], for which the “LOXL1 - Recovery of activity. (%)” value at LOXL1 turned out to be 10.2%. The IC50 at Bovine LOX was less than 1 µM; at Recombinant human MAO-B, more than 30 µM; against LOXL2 [1] it was less than 1 µM; in experiment [2], more than 30 µM.

Take `CC(C)NS(=O)(=O)c1ccc(COc2ccccc2S(=O)(=O)C/C(F)=C/CN)cc1` [Compound 14, (Z)-4-((2-((4-amino-2-fluorobut-2-en-1-yl)sulfonyl)phenoxy)methyl)-N-isopropylbenzenesulfonamide hydrochloride]: the “LOXL1 - Recovery of activity. (%)” value at LOXL1 came out at 1.9%. In addition, the IC50 against Bovine LOX was less than 1 µM; at Recombinant human MAO-B, more than 30 µM; on LOXL2 [1], less than 1 µM; in experiment [2], more than 30 µM.

Take `CC(C)N(C(C)C)S(=O)(=O)c1ccc(NC(=O)c2ccccc2S(=O)(=O)C/C(F)=C/CN)cc1` [Compound 15, (Z)-2-((4-amino-2-fluorobut-2-en-1-yl)sulfonyl)-N-(4-(N,N-diisopropylsulfamoyl)phenyl)benzamide hydrochloride]: the “LOXL1 - Recovery of activity. (%)” value on LOXL1 is 26.1%. Also, the IC50 was less than 10 µM against Bovine LOX, more than 30 µM at Recombinant human MAO-B, less than 1 µM against LOXL2 [1] and more than 30 µM in experiment [2].

Take `CN(C)S(=O)(=O)c1ccc(Oc2cccc(S(=O)(=O)C/C(F)=C/CN)c2)cc1` [Compound 16, (Z)-4-(3-(4-amino-2-fluorobut-2-enylsulfonyl)phenoxy)-N,N-dimethylbenzenesulfonamide hydrochloride]: the IC50 at Bovine LOX and at LOXL2 [1] was less than 1 µM each time. Moreover, the “LOXL2 - Recovery of activity. (%)” value on LOXL2 [3] came out at 14.4%.

For `CN(C)S(=O)(=O)c1cccc(Oc2cccc(S(=O)(=O)C/C(F)=C/CN)c2)c1` [Compound 17, (Z)-3-(3-(4-amino-2-fluorobut-2-enylsulfonyl)phenoxy)-N,N-dimethylbenzenesulfonamide hydrochloride], the values for the IC50 against Bovine LOX and on LOXL2 [1] were less than 10 µM and less than 1 µM, respectively. In addition, the “LOXL2 - Recovery of activity. (%)” value on LOXL2 [3] came out at 5.3%.

Regarding `CN(C)S(=O)(=O)c1cccc(Oc2ccccc2S(=O)(=O)C/C(F)=C/CN)c1` [Compound 18, (Z)-3-(2-(4-amino-2-fluorobut-2-enylsulfonyl)phenoxy)-N,N-dimethylbenzenesulfonamide hydrochloride], the IC50 at Bovine LOX and at LOXL2 [1] was less than 1 µM in each case. In addition, the “LOXL2 - Recovery of activity. (%)” value on LOXL2 [3] was 6.9%.
